Measured values: patent US9346809B2 (LEO PHARMA A/S, priority 2009, dated 2016)
Read-outs that look alike come from different tables or passages of the source.

Experiments:
Format in all cases: biochemical
[1] = target: T1, JAK1 (aa 850-1154, catalytic domain, GST-tag) (Homo sapiens, UniProt P23458); assay: JAK kinase assay (HTRF, phosphorylation of TK substrate-biotin), JAK1; conditions: HTRF assay, ATP at Km (7 μM)
T1 construct: JAK1 (aa 850-1154) and TYK2 (aa 871-1187) are expressed with an N-terminally fused GST-tag; GST (N); purchased Carna Biosciences, Inc; host or cells: baculovirus expression system
T1 sequence (P23458 850-1154): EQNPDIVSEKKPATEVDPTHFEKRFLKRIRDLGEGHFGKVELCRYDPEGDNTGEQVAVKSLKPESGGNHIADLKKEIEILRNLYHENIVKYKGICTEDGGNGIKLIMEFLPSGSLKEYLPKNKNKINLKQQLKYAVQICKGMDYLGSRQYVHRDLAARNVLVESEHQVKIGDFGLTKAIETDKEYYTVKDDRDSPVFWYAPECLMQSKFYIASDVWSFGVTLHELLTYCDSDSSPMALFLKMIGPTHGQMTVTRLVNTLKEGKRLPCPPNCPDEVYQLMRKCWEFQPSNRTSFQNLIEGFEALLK
Procedure, shortened: (§1)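 Compound was mixed with TK substrate-biotin (1 μM final), then kinase plus ATP at its Km was added and left 20-30 min at room temperature. Detection mix with EDTA, Streptavidin-XL665 and STK Ab Cryptate stopped the reaction; after overnight dark incubation, HTRF was read and EC50 derived.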

[2] = target: T2, JAK2 (catalytic domain, His-tag) (Homo sapiens, UniProt O60674); assay: JAK kinase assay (HTRF, phosphorylation of TK substrate-biotin), JAK2; conditions: HTRF assay, ATP at Km (4 μM)
T2 construct: All four purified enzymes contain only the catalytic domain; His (N); purchased Carna Biosciences, Inc; host or cells: baculovirus expression system
T2 sequence (O60674 849-1124 limits assumed): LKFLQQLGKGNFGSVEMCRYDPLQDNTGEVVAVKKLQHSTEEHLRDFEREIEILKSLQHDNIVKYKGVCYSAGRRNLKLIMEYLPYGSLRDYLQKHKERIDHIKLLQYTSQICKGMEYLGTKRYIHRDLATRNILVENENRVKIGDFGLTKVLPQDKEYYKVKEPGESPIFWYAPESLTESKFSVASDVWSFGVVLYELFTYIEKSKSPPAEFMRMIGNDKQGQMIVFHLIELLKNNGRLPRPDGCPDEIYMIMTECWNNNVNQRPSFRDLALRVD
Procedure, shortened: as §1

[3] = target: T3, JAK3 (catalytic domain, His-tag) (Homo sapiens, UniProt P52333); assay: JAK kinase assay (HTRF, phosphorylation of TK substrate-biotin), JAK3; conditions: HTRF assay, ATP at Km (2 μM)
T3 construct: All four purified enzymes contain only the catalytic domain; His (N); purchased Carna Biosciences, Inc; host or cells: baculovirus expression system
T3 sequence (P52333 822-1111 limits assumed): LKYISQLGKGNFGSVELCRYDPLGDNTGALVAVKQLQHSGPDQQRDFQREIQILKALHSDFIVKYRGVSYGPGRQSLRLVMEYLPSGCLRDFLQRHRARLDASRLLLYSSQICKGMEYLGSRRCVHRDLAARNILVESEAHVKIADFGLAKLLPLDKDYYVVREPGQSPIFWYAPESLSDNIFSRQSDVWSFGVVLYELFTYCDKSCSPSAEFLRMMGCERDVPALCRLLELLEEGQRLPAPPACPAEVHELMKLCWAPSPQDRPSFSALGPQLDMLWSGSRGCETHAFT
Procedure, shortened: as §1

[4] = target: T4, TYK2 (aa 871-1187, catalytic domain, GST-tag) (Homo sapiens, UniProt P29597); assay: JAK kinase assay (HTRF, phosphorylation of TK substrate-biotin), TYK2; conditions: HTRF assay, ATP at Km (13 μM)
T4 construct: JAK1 (aa 850-1154) and TYK2 (aa 871-1187) are expressed with an N-terminally fused GST-tag; GST (N); purchased Carna Biosciences, Inc; host or cells: baculovirus expression system
T4 sequence (P29597 871-1187): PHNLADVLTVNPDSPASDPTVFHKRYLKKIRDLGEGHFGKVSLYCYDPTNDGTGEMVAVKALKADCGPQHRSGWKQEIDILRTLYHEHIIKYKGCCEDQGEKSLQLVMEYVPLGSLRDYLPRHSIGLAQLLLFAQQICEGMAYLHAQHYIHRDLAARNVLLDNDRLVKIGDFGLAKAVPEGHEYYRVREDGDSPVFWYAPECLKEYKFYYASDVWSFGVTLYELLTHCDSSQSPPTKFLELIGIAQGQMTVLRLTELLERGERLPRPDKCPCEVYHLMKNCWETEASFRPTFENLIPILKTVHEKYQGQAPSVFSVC
Procedure, shortened: as §1

[5] = read-out: JAK1 kinase inhibitory activity (EC50 indicator)
[6] = read-out: JAK2 kinase inhibitory activity (EC50 indicator)
[7] = read-out: JAK3 kinase inhibitory activity (EC50 indicator)
[8] = read-out: TYK2 kinase inhibitory activity (EC50 indicator)
[9] = read-out: JAK1 kinase inhibitory activity (EC50)
[10] = read-out: JAK2 kinase inhibitory activity (EC50)
[11] = read-out: JAK3 kinase inhibitory activity (EC50)
[12] = read-out: TYK2 kinase inhibitory activity (EC50)

Row | Compound | EC50 [1, 5] [µM] | EC50 [2, 6] [µM] | EC50 [3, 7] [µM] | EC50 [4, 8] [µM] | EC50 [1, 9] [µM] | EC50 [2, 10] [µM] | EC50 [3, 11] [µM] | EC50 [4, 12] [µM]
1 | Cc1nc2ccccc2nc1C(=O)N1CCN(c2ncnc3[nH]ccc23)CC12CC2 [Example 419, (3-Methyl-quinoxalin-2-yl)-[7-(7H-pyrrolo[2,3-d]pyrimidin-4-yl)-4,7-diaza-spiro[2.5]oct-4-yl]-methanone] | < 0.1 | < 0.1 | < 0.1 | < 0.1 |  |  |  | 
2 | CS(=O)(=O)c1ccc(CC(=O)N2CCN(c3ncnc4[nH]ccc34)CC23CC3)cc1 [Example 420, 2-(4-Methanesulfonyl-phenyl)-1-[7-(7H-pyrrolo[2,3-d]pyrimidin-4-yl)-4,7-diaza-spiro[2.5]oct-4-yl]-ethanone] | < 0.1 | < 0.1 | < 0.1 | > 0.5 |  |  |  | 
3 | O=C(c1cnccn1)N1[C@@H]2CC[C@H]1CN(c1ncnc3[nH]ccc13)C2 [Example 421, Pyrazin-2-yl-[3-(7H-pyrrolo[2,3-d]pyrimidin-4-yl)-3,8-diaza-bicyclo[3.2.1]oct-8-yl]-methanone] | < 0.1 | < 0.1 | 0.1 to 0.5 | > 0.5 |  |  |  | 
4 | O=C(c1ccc(S(=O)(=O)NCc2ccco2)cc1)N1CCN(c2ncnc3[nH]ccc23)CC12CC2 [Example 426, N-Furan-2-ylmethyl-4-[7-(7H-pyrrolo[2,3-d]pyrimidin-4-yl)-4,7-diaza-spiro[2.5]octane-4-carbonyl]-benzenesulfonamide] | < 0.1 | < 0.1 | < 0.1 | 0.1 to 0.5 |  |  |  | 
5 | Cc1ccc(CNS(=O)(=O)c2ccc(C(=O)N3CCN(c4ncnc5[nH]ccc45)CC34CC4)cc2)o1 [Example 427, N-(5-Methyl-furan-2-ylmethyl)-4-[7-(7H-pyrrolo[2,3-d]pyrimidin-4-yl)-4,7-diaza-spiro[2.5]octane-4-carbonyl]-benzenesulfonamide] | < 0.1 | < 0.1 | < 0.1 | < 0.1 |  |  |  | 
6 | CC(C)(C)OC(=O)NCCNS(=O)(=O)c1ccc(C(=O)N2CCN(c3ncnc4[nH]ccc34)CC23CC3)cc1 [Example 428, (2-{4-[7-(7H-Pyrrolo[2,3-d]pyrimidin-4-yl)-4,7-diaza-spiro[2.5]octane-4-carbonyl]-benzenesulfonylamino}-ethyl)-carbamic acid tert-butyl ester] | < 0.1 | < 0.1 | < 0.1 | 0.1 to 0.5 |  |  |  | 
7 | CS(=O)(=O)Nc1ccc(C(=O)N2CCN(c3ncnc4[nH]ccc34)CC23CC3)cc1 [Example 430, N-{4-[7-(7H-Pyrrolo[2,3-d]pyrimidin-4-yl)-4,7-diaza-spiro[2.5]octane-4-carbonyl]-phenyl}-methanesulfonamide] | < 0.1 | < 0.1 | < 0.1 | < 0.1 |  |  |  | 
8 | CCCS(=O)(=O)Nc1ccc(C(=O)N2CCN(c3ncnc4[nH]ccc34)CC23CC3)cc1 [Example 431, Propane-1-sulfonic acid {4-[7-(7H-pyrrolo[2,3-d]pyrimidin-4-yl)-4,7-diaza-spiro[2.5]octane-4-carbonyl]-phenyl}-amide] | < 0.1 | < 0.1 | 0.1 to 0.5 | 0.1 to 0.5 |  |  |  | 
9 | CC(C)S(=O)(=O)Nc1ccc(C(=O)N2CCN(c3ncnc4[nH]ccc34)CC23CC3)cc1 [Example 432, Propane-2-sulfonic acid {4-[7-(7H-pyrrolo[2,3-d]pyrimidin-4-yl)-4,7-diaza-spiro[2.5]octane-4-carbonyl]-phenyl}-amide] | < 0.1 | < 0.1 | < 0.1 | 0.1 to 0.5 |  |  |  | 
10 | COCCS(=O)(=O)c1ccc(C(=O)N2CCN(c3ncnc4[nH]ccc34)CC23CC3)cc1 [Example 433, [4-(2-Methoxy-ethanesulfonyl)-phenyl]-[7-(7H-pyrrolo[2,3-d]pyrimidin-4-yl)-4,7-diaza-spiro[2.5]oct-4-yl]-methanone] | < 0.1 | < 0.1 | 0.1 to 0.5 | 0.1 to 0.5 |  |  |  | 
11 | NS(=O)(=O)c1ccc(OCC(=O)N2CCN(c3ncnc4[nH]ccc34)CC23CC3)c(F)c1 [Example 434, 3-Fluoro-4-{2-oxo-2-[7-(7H-pyrrolo[2,3-d]pyrimidin-4-yl)-4,7-diaza-spiro[2.5]oct-4-yl]-ethoxy}-benzenesulfonamide] |  |  |  |  | < 0.1 | < 0.1 | < 0.1 | < 0.1
12 | NS(=O)(=O)c1cnn(CCC(=O)N2CCN(c3ncnc4[nH]ccc34)CC23CC3)c1 [Example 435, 1-{3-Oxo-3-[7-(7H-pyrrolo[2,3-d]pyrimidin-4-yl)-4,7-diaza-spiro[2.5]oct-4-yl]-propyl}-1H-pyrazole-4-sulfonic acid amide] |  |  |  |  | < 0.1 | < 0.1 | < 0.1 | 0.1 to 0.5
13 | Cc1ccc(S(=O)(=O)N2CCN(c3ncnc4[nH]ccc34)CC23CC3)cc1 [Example 439, 4-[4-(Toluene-4-sulfonyl)-4,7-diazaspiro[2.5]oct-7-yl]-7H-pyrrolo[2,3-d]pyrimidine] |  |  |  |  | < 0.1 | < 0.1 | < 0.1 | 0.1 to 0.5

Further lines, results first:

Row | EC50 [1, 5] [µM] | EC50 [2, 6] [µM] | EC50 [3, 7] [µM] | EC50 [4, 8] [µM] | EC50 [1, 9] [µM] | EC50 [2, 10] [µM] | EC50 [3, 11] [µM] | EC50 [4, 12] [µM] | Compound
14 | < 0.1 | < 0.1 | 0.1 to 0.5 | > 0.5 |  |  |  |  | CC(C)CNS(=O)(=O)c1csc(C(=O)N2CCN(c3ncnc4[nH]ccc34)CC23CC3)c1 [Example 423, 5-[7-(7H-Pyrrolo[2,3-d]pyrimidin-4-yl)-4,7-diaza-spiro[2.5]octane-4-carbonyl]-thiophene-3-sulfonic acid isobutyl-amide]
15 | < 0.1 | < 0.1 | < 0.1 | 0.1 to 0.5 |  |  |  |  | N#Cc1ccc(C2(C(=O)N3CCN(c4ncnc5[nH]ccc45)CC34CC4)CC2)cc1 [Example 429, 4-{1-[7-(7H-Pyrrolo[2,3-d]pyrimidin-4-yl)-4,7-diaza-spiro[2.5]octane-4-carbonyl]-cyclopropyl}-benzonitrile]
16 |  |  |  |  | < 0.1 | < 0.1 | < 0.1 | 0.1 to 0.5 | O=C(NC1CCCCC1)N1CCN(c2ncnc3[nH]ccc23)CC12CC2 [Example 436, 7-(7H-Pyrrolo[2,3-d]pyrimidin-4-yl)-4,7-diaza-spiro[2.5]octane-4-carboxylic acid cyclohexylamide]
17 |  |  |  |  | > 0.5 | 0.1 to 0.5 | > 0.5 | > 0.5 | S=C(NC1CCCCC1)N1CCN(c2ncnc3[nH]ccc23)CC12CC2 [Example 437, 7-(7H-Pyrrolo[2,3-d]pyrimidin-4-yl)-4,7-diaza-spiro[2.5]octane-4-carbothioic acid cyclohexylamide]
18 |  |  |  |  | < 0.1 | < 0.1 | 0.1 to 0.5 | 0.1 to 0.5 | S=C(NCc1ccccc1)N1CCN(c2ncnc3[nH]ccc23)CC12CC2 [Example 438, 7-(7H-Pyrrolo[2,3-d]pyrimidin-4-yl)-4,7-diaza-spiro[2.5]octane-4-carbothioic acid benzylamide]
19 |  |  |  |  | < 0.1 | < 0.1 | 0.1 to 0.5 | 0.1 to 0.5 | S=C(c1cc2c(s1)CCC2)N1CCN(c2ncnc3[nH]ccc23)CC12CC2 [Example 440, (5,6-Dihydro-4H-cyclopenta[b]thiophen-2-yl)-[7-(7H-pyrrolo[2,3-d]Pyrimidin-4-yl)-4,7-diaza-spiro[2.5]oct-4-yl]-methanethione]
20 |  |  |  |  | < 0.1 | < 0.1 | < 0.1 | < 0.1 | N#Cc1ccc(CC(=S)N2CCN(c3ncnc4[nH]ccc34)CC23CC3)cc1 [Example 441, 4-{2-[7-(7H-Pyrrolo[2,3-d]pyrimidin-4-yl)-4,7-diaza-spiro[2.5]oct-4-yl]-2-thioxo-ethyl}-benzonitrile]
21 |  |  |  |  | < 0.1 | < 0.1 | < 0.1 | 0.1 to 0.5 | O=C(COc1ccccc1)N1CCN(c2ncnc3[nH]ccc23)CC12CC2 [Example 442, 2-Phenoxy-1-[7-(7H-pyrrolo[2,3-d]pyrimidin-4-yl)-4,7-diaza-spiro[2.5]oct-4-yl]-ethanone]
22 |  |  |  |  | < 0.1 | < 0.1 | > 0.5 | > 0.5 | COCC(=O)N1CCN(c2ncnc3[nH]ccc23)CC12CC2 [Example 443, 2-Methoxy-1-[7-(7H-pyrrolo[2,3-d]pyrimidin-4-yl)-4,7-diaza-spiro[2.5]oct-4-yl]-ethanone]
